What was measured:
Experiment in all cases: KINOMEscan kinase binding assay
[1] = target: JAK2(JH1domain-catalytic); conditions: read-out: JAK2(JH1 domain-catalytic) Kd
Method: (§1) Kinase binding assays were performed at Eurofins/DiscoveRx using the general KINOMEscan Protocol (Fabian, M. A. et al., “A small molecule-kinase interaction map for clinical kinase inhibitors,” Nat. Biotechnol. 2005, 23(3):329-36). For most assays, kinase-tagged T7 phage strains were prepared in an E. coli host derived from the BL21 strain. E. coli were grown to log-phase and infected with T7 phage and incubated with shaking at 32° C. until lysis. The lysates were centrifuged and filtered to remove cell debris. The remaining kinases were produced in HEK-293 cells and subsequently tagged with DNA for qPCR detection. Streptavidin-coated magnetic beads were treated with biotinylated small molecule ligands for 30 minutes at room temperature to generate affinity resins for kinase assays. The liganded beads were blocked with excess biotin and washed with blocking buffer (SeaBlock (Pierce), 1% BSA, 0.05% Tween 20, 1 mM DTT) to remove unbound ligand and to reduce nonspecific binding. Binding reactions were assembled by combining kinases, liganded affinity beads, and test compounds in 1× binding buffer (20% SeaBlock, 0.17×PBS, 0.05% Tween 20, 6 mM DTT). All reactions were performed in polystyrene 96-well plates in a final volume of 0.135 mL. The assay plates were incubated at room temperature with shaking for 1 hour and the affinity beads were washed with wash buffer (1×PBS, 0.05% Tween 20). The beads were then re-suspended in elution buffer (1×PBS, 0.05% Tween 20, 0.5 μM non-biotinylated affinity ligand) and incubated at room temperature with shaking for 30 minutes. The kinase concentration in the eluates was measured by qPCR. Results for compounds tested in this assay at a given concentration are reported as “% Ctrl”, where lower numbers indicate stronger binding in the matrix. % Ctrl was calculated as (test compound signal-positive control signal)/(negative control signal-positive control signal)×100. Dissociation constants (Kds) for test compound-kinase interactions were calculated by measuring the amount of kinase captured on the solid support as a function of the test compound concentration.

[2] = target: JAK1(JH2domain-pseudokinase); conditions: read-out: JAK1(JH2 domain-pseudokinase) Kd
Method: as §1

[3] = target: JAK3(JH1domain-catalytic); conditions: read-out: JAK3(JH1 domain-catalytic) Kd
Method: as §1

[4] = target: TYK2(JH1domain-catalytic); conditions: read-out: TYK2(JH1 domain-catalytic) Kd
Method: as §1

[5] = target: TYK2(JH2domain-pseudokinase); conditions: read-out: TYK2(JH2 domain-pseudokinase) Kd
Method: as §1

[6] = target: JAK1(JH1domain-catalytic); conditions: read-out: JAK1(JH1 domain-catalytic) Kd
Method: as §1

| Structure (SMILES) | Kd [1] [nM] | Kd [2] [nM] | Kd [3] [nM] | Kd [4] [nM] | Kd [5] [nM] | Kd [6] [nM] |
| --- | --- | --- | --- | --- | --- | --- |
| Cc1cc2c([nH]1)/C=C1\C(=O)Nc3c(Cl)cc(cc31)-c1cn(C)nc1COCCN(C)C2=O [Cpd. 7, [3a(4)Z]-20-chloro-6,9,15-trimethyl-10,11,13,15-tetrahydro-2H-1,17-(ethanediylidene)pyrazolo[4,3-m]dipyrrolo[3,2-f:3′,4′-i][1,4]oxazacyclopentadecine-3,8(5H,9H)-dione] | > 10000 | 47 | > 10000 | > 10000 | 0.51 | > 10000 |
| Cc1nc2c([nH]1)/C=C1\C(=O)Nc3c(Cl)cc(cc31)-c1cn(C)nc1COC[C@@H](C)N(C)C2=O [Cpd. 8, [3a(4)Z,10R]-20-chloro-6,9,10,15-tetramethyl-10,11,13,15-tetrahydro-2H-1,17-(ethanediylidene)imidazo[4,5-f]pyrazolo[4,3-m]pyrrolo[3,4-i][1,4]oxazacyclopentadecine-3,8(5H,9H)-dione] | > 10000 | – | > 10000 | > 10000 | 170 | > 10000 |
| Cc1cc2c([nH]1)/C=C1\C(=O)Nc3c(Cl)cc(cc31)-c1[nH]c(C)nc1COC[C@@H](C)N(C)C2=O [Cpd. 9, [3a(4)Z,10R]-20-chloro-6,9,10,15-tetramethyl-10,11,13,16-tetrahydro-2H-1,17-(ethanediylidene)imidazo[4,5-m]dipyrrolo[3,2-f:3′,4′-i][1,4]oxazacyclopentadecine-3,8(5H,9H)-dione] | > 10000 | 130 | 3100 | > 10000 | 1 | > 10000 |
| Cc1cc2c([nH]1)/C=C1\C(=O)Nc3c(C#N)cc(cc31)-c1cn(C)nc1COC[C@@H](C)N(C)C2=O [Cpd. 10, [3a(4)Z,10R]-6,9,10,15-tetramethyl-3,8-dioxo-3,5,8,9,10,11,13,15-octahydro-2H-1,17-(ethanediylidene)pyrazolo[4,3-m]dipyrrolo[3,2-f:3′,4′-i][1,4]oxazacyclopentadecine-20-carbonitrile] | > 1000 | – | > 1000 | – | 46 | > 1000 |
| Cc1cc2c([nH]1)/C=C1\C(=O)Nc3c(Cl)cc(cc31)-c1cn(C)nc1COC[C@H](C)N(C)C2=O [compound 6, [3a(4)Z,10S]-20-chloro-6,9,10,15-tetramethyl-10,11,13,15-tetrahydro-2H-1,17-(ethanediylidene)pyrazolo[4,3-m]dipyrrolo[3,2-f:3′,4′-i][1,4]oxazacyclopentadecine-3,8(5H,9H)-dione] | > 10000 | 160 | > 10000 | > 10000 | 2.5 | > 10000 |
| Cc1cc2c([nH]1)/C=C1\C(=O)Nc3c(F)cc(cc31)-c1c(nn(C)c1C)COC[C@@H](C)N(C)C2=O [compound 11, [3a(4)Z,10R]-20-fluoro-6,9,10,15,16-pentamethyl-10,11,13,15-tetrahydro-2H-1,17-ethenopyrazolo[4,3-m]dipyrrolo[3,2-f:3′,4′-i][1,4]oxazacyclopentadecine-3,8(5H,9H)-dione] | > 10000 | 730 | 5200 | > 10000 | 3.4 | > 10000 |
| Cc1cc2c([nH]1)/C=C1\C(=O)Nc3c(Cl)cc(cc31)-c1c(nn(C)c1C)COC[C@@H](C)N(C)C2=O [compound 12, [3a(4)Z,10R]-20-chloro-6,9,10,15,16-pentamethyl-10,11,13,15-tetrahydro-2H-1,17-ethenopyrazolo[4,3-m]dipyrrolo[3,2-f:3′,4′-i][1,4]oxazacyclopentadecine-3,8(5H,9H)-dione] | > 10000 | 120 | > 10000 | > 10000 | 1.3 | > 10000 |
| Cc1cc2c([nH]1)/C=C1\C(=O)Nc3c(F)cc(cc31)-c1cn(C)nc1COC[C@@H](C)N(C)C2=O [compound 13, [3a(4)Z,10R]-20-fluoro-6,9,10,15-tetramethyl-10,11,13,15-tetrahydro-2H-1,17-ethenopyrazolo[4,3-m]dipyrrolo[3,2-f:3′,4′-i][1,4]oxazacyclopentadecine-3,8(5H,9H)-dione] | > 10000 | 410 | > 10000 | > 10000 | 1 | > 10000 |
